From patent US10273236B2, “Macrocyclic factor XIa inhibitors bearing heterocyclic groups” (Bristol-Myers Squibb Company, priority 2014, dated 2019)
Read-outs that look alike come from different tables or passages of the source.

Columns and labels:
[1] = rcm bond, 12-membered ring
[2] = from C=CC[C@H](NC(=O)OC(C)(C)C)c1cc(-c2c(NC(=O)C(C=C)C(C)C)cnn2C)ccn1; rcm bond; 12-membered ring; Grubbs II (40 mol%); DCE; 36.7 mM; 120.0 °C
factor XIa = factor XIa (Homo sapiens, UniProt P03951); details: value taken from WO 2014/022767, Table 1, page 89; cited from earlier work
factor XIa, sequence (P03951 388-625 limits assumed): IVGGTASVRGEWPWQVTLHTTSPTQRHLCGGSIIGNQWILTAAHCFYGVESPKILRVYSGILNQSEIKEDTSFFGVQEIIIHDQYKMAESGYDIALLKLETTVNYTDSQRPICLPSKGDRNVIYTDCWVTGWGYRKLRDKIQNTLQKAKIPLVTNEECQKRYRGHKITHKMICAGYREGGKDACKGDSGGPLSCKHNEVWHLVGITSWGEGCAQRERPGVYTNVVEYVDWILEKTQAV
factor XIa, sequence (P03951 19-387 partner limits assumed): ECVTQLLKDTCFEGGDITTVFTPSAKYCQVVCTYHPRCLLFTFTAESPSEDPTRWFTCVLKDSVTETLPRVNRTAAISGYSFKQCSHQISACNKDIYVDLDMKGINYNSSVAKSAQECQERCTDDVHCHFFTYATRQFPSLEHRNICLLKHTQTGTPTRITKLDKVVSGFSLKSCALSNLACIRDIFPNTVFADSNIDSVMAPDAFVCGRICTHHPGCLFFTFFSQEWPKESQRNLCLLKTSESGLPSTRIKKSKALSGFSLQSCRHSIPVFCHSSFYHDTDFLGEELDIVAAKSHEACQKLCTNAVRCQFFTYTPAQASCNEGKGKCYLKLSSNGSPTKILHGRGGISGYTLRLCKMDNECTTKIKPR

[3] = molecular target: T1, purified human Factor XIa (Homo sapiens, UniProt P03951); experiment: Factor XIa inhibition assay, chromogenic substrate S-2366 (Ki); type: biochemical
T1 construct: purchased Haematologic Technologies
T1 sequence (P03951 388-625 limits assumed): as the sequence (P03951 388-625 limits assumed) above
T1 sequence (P03951 19-387 partner limits assumed): as the sequence (P03951 19-387 partner limits assumed) above
Outline: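 Purified human FXIa (25-200 pM final) with S-2366 (0.0002-0.001 M) in 50 mM HEPES pH 7.4, 145 mM NaCl, 5 mM KCl, 0.1% PEG 8000. Velocities of absorbance change measured over 20-180 min with inhibitor present; Ki calculated for competitive inhibition from rates or IC50 via Ki=IC50/(1+S/Km).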

[4] = molecular target: T2, purified human plasma kallikrein (Homo sapiens, UniProt P03952); experiment: Plasma kallikrein inhibition assay, chromogenic substrate S-2302 (Ki); type: biochemical
T2 construct: Plasma prekallikrein is a zymogen of a trypsin-like serine protease; purchased Enzyme Research Laboratories
T2 sequence (P03952 391-638 limits assumed): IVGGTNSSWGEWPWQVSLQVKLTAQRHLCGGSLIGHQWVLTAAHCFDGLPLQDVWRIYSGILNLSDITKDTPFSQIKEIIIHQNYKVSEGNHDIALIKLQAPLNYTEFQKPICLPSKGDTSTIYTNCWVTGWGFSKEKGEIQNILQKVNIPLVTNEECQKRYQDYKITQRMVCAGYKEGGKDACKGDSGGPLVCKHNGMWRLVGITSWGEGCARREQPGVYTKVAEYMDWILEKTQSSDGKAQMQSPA
T2 sequence (P03952 20-390 partner limits assumed): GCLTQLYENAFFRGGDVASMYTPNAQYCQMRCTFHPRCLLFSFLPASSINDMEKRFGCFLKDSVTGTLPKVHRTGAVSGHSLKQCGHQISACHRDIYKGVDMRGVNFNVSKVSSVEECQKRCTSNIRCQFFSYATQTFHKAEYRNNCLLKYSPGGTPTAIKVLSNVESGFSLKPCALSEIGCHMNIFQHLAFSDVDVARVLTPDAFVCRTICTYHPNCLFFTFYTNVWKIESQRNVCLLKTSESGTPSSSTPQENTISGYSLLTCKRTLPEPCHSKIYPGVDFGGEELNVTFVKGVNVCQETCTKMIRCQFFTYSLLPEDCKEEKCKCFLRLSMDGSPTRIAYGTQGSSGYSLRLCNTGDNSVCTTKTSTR
Outline: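 Purified human plasma kallikrein (200 pM final) with chromogenic substrate S-2302 at 0.00008-0.0004 M in 0.1 M sodium phosphate pH 7.5, 0.1-0.2 M NaCl, 0.5% PEG 8000. Velocities measured over 20-180 min with and without inhibitor; Ki derived assuming competitive inhibition, e.g. Ki=IC50/(1+S/Km).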

With C[C@@H]1/C=C/C[C@H](NC(=O)OCc2ccccc2)c2cc(ccn2)-c2c(cnn2CCOC(C)(C)C)NC1=O as the compound, how does the ring closure, isolated yield ([1]; from C=CC[C@H](NC(=O)OCc1ccccc1)c1cc(-c2c(NC(=O)[C@H](C)C=C)cnn2CCOC(C)(C)C)ccn1, Grubbs II (40 mol%), DCE, 35.6 mM, 120.0 °C, 0.5 h) read?
Its ring closure, isolated yield is 38%.

Which ring closure, isolated yield ([1]; from C=CC[C@H](NC(=O)OC(C)(C)C)c1cc(-c2c(NC(=O)[C@H](C)C=C)cnn2C)ccn1, Grubbs II (40 mol%), DCE, 78.3 mM, 120.0 °C) does the source give for C[C@@H]1/C=C/C[C@H](NC(=O)OC(C)(C)C)c2cc(ccn2)-c2c(cnn2C)NC1=O here?
Its ring closure, isolated yield is 20%.

With C[C@@H]1/C=C/C[C@H](NC(=O)OC(C)(C)C)c2cccc(n2)-c2c(cnn2C)NC1=O as the compound, how does the ring closure, isolated yield ([1]; from C=CC[C@H](NC(=O)OC(C)(C)C)c1cccc(-c2c(NC(=O)[C@H](C)C=C)cnn2C)n1, Grubbs II (40 mol%), EtOAc, 13.2 mM, 80.0 °C) read?
Its ring closure, isolated yield is 66%.

With CC(C)[C@H]1/C=C/C[C@H](NC(=O)OC(C)(C)C)c2cc(ccn2)-c2c(cnn2C)NC1=O as the compound, how does the ring closure, yield after HPLC [2] read?
The ring closure, yield after HPLC was 16.8%.

Which ring closure, isolated yield ([1]; from C=CC[C@H](NC(=O)OC(C)(C)C)c1cc(-c2c(NC(=O)[C@H](C)C=C)cnn2C(F)F)ccn1, Grubbs II (25 mol%), EtOAc, 5.0 mM) does the source give for C[C@@H]1/C=C/C[C@H](NC(=O)OC(C)(C)C)c2cc(ccn2)-c2c(cnn2C(F)F)NC1=O here?
The ring closure, isolated yield was 76%.

For CC(C)[C@@H]1/C=C/C[C@H](NC(=O)OC(C)(C)C)c2cc(ccn2)-c2c(cnn2C)NC1=O, which ring closure, yield after HPLC [2] is on record?
Its ring closure, yield after HPLC is 16.8%.

For C[C@@H]1CCC[C@H](N2CCC(c3c(F)ccc(Cl)c3F)=CC2=O)c2cc(ccn2)-c2cn[nH]c2NC1=O [Example 221], which Ki (factor XIa) is on record?
Its Ki is 1320 nM.

Which results are given for C[C@@H]1CCC[C@H](N2CCC(c3cc(Cl)ccc3-n3ccnn3)=CC2=O)c2cc(ccn2)-c2c(cnn2C2CC2)NC1=O (stereo in doubt) [Example 5, 13-{4-[5-chloro-2-(1H-1,2,3-triazol-1-yl)phenyl]-6-oxo-1,2,3,6-tetrahydropyridin-1-yl}-3-cyclopropyl-9-methyl-3,4,7,15-tetraazatricyclo [12.3.1.0^2,6]octadeca-1(18),2(6),4,14,16-pentaen-8-one]?
Ki [3]: 1.4 nM; Ki [4]: 52 nM

Which results are given for C[C@@H]1CCC[C@H](N2CCC(c3cc(Cl)ccc3-n3cc(Cl)nn3)=CC2=O)c2cc(ccn2)-c2c(cnn2C2CC2(F)F)NC1=O (stereo partly drawn) [Example 56, (9R,13S)-13-{4-[5-chloro-2-(4-chloro-1H-1,2,3-triazol-1-yl)phenyl]-6-oxo-1,2,3,6-tetrahydropyridin-1-yl}-3-(2,2-difluorocyclopropyl)-9-methyl-3,4,7,15-tetraazatricyclo[12.3.1.0^2,6]octadeca-1(18),2(6),4,14,16-pentaen-8-one]?
Ki [3]: 0.36 nM; Ki [4]: 30 nM
